The source of these data is article PMC4482662, “Engineered Trehalose Permeable to Mammalian Cells” (PLoS ONE, 2015).

One data set relates to rat hepatocytes. The data set can be described thus: Uptake and intracellular deacetylation of acetylated trehalose in cultured rat hepatocytes (trehalase assay kit, total after NaOH hydrolysis). As to conditions: 30 mM incubation. Type of data set: in vitro ADME. From the text:
Rat hepatocytes were provided by the Cell Resource Center (CRC) at the Center for Engineering in Medicine at Massachusetts General Hospital. Briefly, hepatocytes were obtained from female Lewis rats using a two-step collagenase protocol. Two or three month old rat (Charles River Laboratories, Wilmington, MA) weighing 180–200 g were used as hepatocyte source and were maintained in accordance with National Research Council guidelines. Experimental protocols in practice at CRC for the use of hepatocytes in this study were approved by the subcommittee on Research Animal Care, Massachusetts General Hospital. Using a modification of the two-step collagenase perfusion method, which involved purification of cell suspension by means of centrifugation over Percoll, approximately 200 million hepatocytes per rat liver with 85–95% viability were routinely obtained, as evaluated by Trypan blue exclusion. Hepatocytes were kept on ice and were plated within 1 h of isolation.
For trehalose loading experiments, 6-well plates were treated with 25μg/mL fibronectin for 1 h prior to plating the hepatocytes, at which point the wells were washed with PBS and the hepatocytes were seeded at 1.2–1.3×10^6 cells/well. The cells were allowed 24–48 h to attach and spread in a 10% (v/v) CO2 incubator at 37°C before they were incubated with acetylated variants of trehalose. […]
The cell lysates were analyzed for protein content using a Bradford Commassie assay for cell count approximation. Trehalose content of cell lysates were measured using a trehalose assay kit following the manufacturer’s protocol. […] This solution was analyzed for total trehalose content against the trehalose controls prepared in a similar fashion, and the concentration was adjusted for the dilution due to addition of NaOH and HCl. To estimate the number of cells, protein content of the cell lysate was assessed using the Pierce^TM Coomassie Plus (Bradford) assay (Life Technologies, Grand Island, NY, USA). […]

The nature of a further data set: Water solubility. Type of data set: physicochemical.

Molecules are shown by their SMILES.

On to `CC(=O)OCC1OC(OC2OC(COC(C)=O)C(O)C(O)C2O)C(O)C(O)C1O` (stereo not drawn) [trehalose diacetate], for which the “enhancement of membrane permeability over regular trehalose” value with rat hepatocytes is reported as “did not observe a significant enhancement of the permeability”.
For `CC(=O)OC1C(OC2OC(CO)C(O)C(OC(C)=O)C2OC(C)=O)OC(CO)C(O)C1OC(C)=O` (stereo not drawn) [4-O-Ac-Tre, trehalose tetraacetate], the “enhancement of membrane permeability over regular trehalose” value with rat hepatocytes is “did not observe a significant enhancement of the permeability”.
`CC(=O)OCC1OC(OC2OC(COC(C)=O)C(OC(C)=O)C(OC(C)=O)C2OC(C)=O)C(OC(C)=O)C(OC(C)=O)C1OC(C)=O` (stereo not drawn) [8-O-Ac-Tre]: the water solubility result in “Water solubility” is listed as “not water soluble”.
